This note sets out measurements from ChEMBL document CHEMBL1201862, “PubChem BioAssay data set” (2004).

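96-well plates; 48 h exposure; 5 concentrations. Endpoints by linear interpolation between flanking doses. Not reached: highest tested concentration assigned. GI50 = concentration required for 50% inhibition of growth.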 Active and inactive are the calls of the source. No stated cut-off is given here; in the data, active = GI50 up to about 1.1 µM and inactive = higher.

Some test systems named below: T47D; Malme-3M; OVCAR-5; HT-29; LOX IMVI; OVCAR-8; MOLT-4; DU-145; SK-MEL-2; SK-MEL-5; HOP-62; MDA-MB-231; SK-MEL-28; ACHN; HL-60; UACC-257; KM12; MCF7; IGROV-1.
Common to all, as to assay: inhibition of tumour cell growth, NCI panel, 48 h

For `COc1ccc(/N=C2\C(=N/c3ccc(OC)cc3)N(c3ccc(N(C)C)cc3)C(=S)N2c2ccc(OC)cc2)cc1`, the GI50 with T47D was > 100 µM (inactive); in the test with Malme-3M, > 100 µM (inactive); in the test with OVCAR-5, > 100 µM (inactive); with HT-29, > 100 µM (inactive); with LOX IMVI, > 100 µM (inactive); in the test with OVCAR-8 it was > 37.2 µM (inactive). The GI50 is 0.0329 µM (active) in the test with MOLT-4; > 100 µM (inactive) in the test with DU-145; > 100 µM (inactive) in the test with SK-MEL-2; > 100 µM (inactive) in the test on SK-MEL-5; > 64.6 µM (inactive) in the test with HOP-62; > 100 µM (inactive) in the test on MDA-MB-231. The GI50 is > 100 µM (inactive) in the test on SK-MEL-28; > 100 µM (inactive) with ACHN; > 100 µM (inactive) with HL-60; > 38 µM (inactive) in the test on UACC-257; > 100 µM (inactive) in the test on KM12; > 100 µM (inactive) with MCF7. Further, in the test with IGROV-1, the GI50 is > 100 µM (inactive).

`N#CC(c1ccccc1)N(CCOCCOCCN(C(=O)c1cccc2ccccc12)C(C#N)c1ccccc1)C(=O)c1cccc2ccccc12` (stereo not drawn): the GI50 in the test on T47D was 4.1 µM (inactive); in the test on Malme-3M it was > 100 µM (inactive); in the test on OVCAR-5 it was > 100 µM (inactive); in the test on HT-29 it was > 100 µM (inactive); with LOX IMVI it was > 100 µM (inactive); in the test with OVCAR-8, > 100 µM (inactive). For the same molecule, the GI50 in the test with MOLT-4 was 8.15 µM (inactive); in the test on DU-145, > 100 µM (inactive); in the test with SK-MEL-2, > 100 µM (inactive); in the test with SK-MEL-5 it was > 100 µM (inactive); in the test on MDA-MB-231 it was > 100 µM (inactive); in the test on SK-MEL-28, > 100 µM (inactive). Moreover, the GI50 in the test with ACHN was > 100 µM (inactive); in the test on HL-60, 31.7 µM (inactive); with UACC-257 it was > 100 µM (inactive); in the test on KM12 it was > 100 µM (inactive); in the test with MCF7 it was > 100 µM (inactive); in the test with IGROV-1, > 100 µM (inactive).

Regarding `CC12CC3OC(=O)C1COC14OC5(C2C1=O)C(O)(CCC1C4CC(O)C2(O)CC=CC(=O)C12C)C(=O)OC35C` (stereo not drawn), the GI50 in the test with T47D, with Malme-3M, with OVCAR-5, with HT-29, in the test on LOX IMVI and in the test on OVCAR-8 was > 100 µM (inactive) in each case. The GI50 in the test with MOLT-4, in the test on DU-145, with SK-MEL-2, in the test on SK-MEL-5, in the test on MDA-MB-231 and in the test with SK-MEL-28 was > 100 µM (inactive) throughout. Besides, the GI50 in the test on ACHN, in the test with HL-60, in the test on UACC-257, with KM12, in the test with MCF7 and in the test with IGROV-1 was > 100 µM (inactive) each time.

On to `COc1nc2sc3c(c2c(=O)n1CCCSSCCCn1c(OC)nc2sc4c(c2c1=O)CCCC4)CCCC3`, for which the GI50 with T47D, in the test with Malme-3M, with OVCAR-5, in the test on HT-29, with LOX IMVI and in the test on OVCAR-8 was > 100 µM (inactive) in each case. The GI50 in the test on MOLT-4, in the test with DU-145, in the test with SK-MEL-2, with SK-MEL-5, with HOP-62 and in the test on MDA-MB-231 was > 100 µM (inactive) each time. The GI50 in the test with SK-MEL-28, with ACHN, in the test on UACC-257, in the test with KM12, in the test on MCF7 and in the test on IGROV-1 was > 100 µM (inactive) throughout.
